Assay results: patent US9844572B2, “Promotion of neuronal integration in neural stem cell grafts” (Life & Brain GmbH, priority 2009, dated 2017)
“Also recorded” adds a separate entry of the source.

What was measured:
[1] = tested on: VEGF-induced angiogenesis; settings: rabbit corneal model; cited from earlier work
KDR = KDR (Homo sapiens, UniProt P35968); settings: cited from earlier work
human Neurons [2] = experiment: Transwell (Boyden chamber) migration assay of human neurons towards chemoattractant-soaked agarose beads; assay type: cell-based; settings: agarose beads soaked with 30 ng/ml factor in lower well; 20 hours
Procedure: FIG. 1B Migration of human Neurons monitored after 20 hours in culture towards either medium or plated neural stem cells derived from human embryonic stem cells (lt-hESNSC) or agarose beads pre-soaked with BDNF, EGF, SDF1, SCF, PDGF, FGF2 or VEGF. Bars represent percentage of migrated neurons (*P<0.03; Statistical significance was determined in relation to medium control).
(§1) One way to study migration at the cellular level is to use microchemotaxis chambers (Boyden chambers; see FIG. 1A) (Richards & McCullough, 1984). A membrane separates the upper and the lower part of the chamber. Cells are plated on the PO/LN coated membrane that separates the upper and the lower well. Chemoattractants are introduced in the well of the lower compartment e.g., by soaking agarose beads (affi-gel blue gel) with the corresponding chemoattractants. 100 μl of the pre-soaked beads are introduced in the lower well and covered with medium before placing the upper well on top. The chemoattractant will be released over time, thus creating a chemoattractive gradient. If the agent acts as a chemoattractant, the attached cells will migrate through the filter towards the gradient of the attracting factor. Small pore sizes (8 μm) require active migration rather than passive falling of the cells through the filter.
In this study agarose beads were soaked with either 30 ng/ml EGF, BDNF, SDF1, SCF, PDFG-AA, FGF2 or VEGF (FIG. 1B). The chemoattractive effect of NSCs on neurons was studied by plating lt-hESNSC directly in the PO/LN coated lower well before placing the upper well with the attached neurons on top. After a culture period of 20 hours, chambers were fixed with 4% PFA for 10 min. Cells that had not migrated and were still on the upper side of the membrane were scraped off, while the migrated cells on the lower side were DAPI stained and counted.

human Neurons [3] = experiment: Dunn chamber migration assay (chemotaxis of immature neurons); assay type: cell-based; settings: factor 200 ng/ml in outer well only; 6 h recording
Procedure: FIG. 7A Dunn chamber migration assay. Schematic representation of a direct-viewing Dunn chemotaxis chamber showing the position of the inner well, the bridge, the outer well and the overlying coverslip (a) (Zicha et al., 1991 1998, Zhang et al., 2003). Adopted from Hawksley. Calculation of the forward migration index (FMI) during a 6 h recording period. FMI values can be either positive or negative, depending on the direction in which the cell is migrating (b).
FIG. 7B Directionality analysis of cell movement using scatter plots of cell displacement (c-i). The diagrams orientate such that the position of the outer well of the chamber are vertical (y direction). Each point represents the final position of a cell at the end of the recording period of 6-h; the starting point of migration is fixed at the intersection of the two axes. As control migration of human neurons was monitored in medium only (c). For assessing chemokinesis, equal amounts of FGF2 (d) or VEGF (e) were added to both the outer and the inner wells of the chamber. Chemotaxis was tested by placing FGF2 (f) or VEGF (g) in the outer well only. Migration of human neurons treated with BFBF1120 was monitored towards a FGF2 (h) and VEGF (i) gradient.
Chemotaxis of immature neurons was directly viewed and recorded in stable concentration gradients of FGF2 (200 ng/ml) or VEGF (200 ng/ml), respectively, with or without the addition of BIBF1120 ([…]) using a Dunn chemotaxis chamber (Allen et al., 1998 1998, Zhang et al., 2003). This device is made from a Helber bacteria counting chamber by grinding a circular well in the central platform to leave a 1 mm-wide annular bridge between the inner and the outer well. Chemoattractants added to the outer well of the chamber will diffuse across the bridge to the inner well and form a linear steady gradient within ˜30 min after loading the chamber (Zicha et al., 1991; Webb et al., 1996). To study chemotaxis, the outer well of the Dunn chamber can be filled with medium containing a chemoattractant, whereas the concentric inner well is filled with medium only. Coverslips carrying the cultured cells are inverted and placed onto the chamber. Cell locomotion is recorded through the annular bridge between the concentric inner and outer well. For assessing chemokinesis, the outer and inner wells are filled with equal concentrations of the chemoattractant. A period of 6 h was chosen to assess cell migration.
To determine the efficiency of forward migration during the 6 h recording period, the FMI was calculated as the ratio of forward progress to the total path length (Foxman et al., 1999; Zhang et al.).

primary tumor = settings: cited from earlier work
[4] = tested on: immature neurons in the presence of neural stem/progenitor cells (hES-NSC70+N30); experiment: Boyden chamber assay of neural stem/progenitor cells mixed with immature neurons (hES-NSC70+N30) pre-incubated with inhibitor; assay type: cell-based, human; settings: hES-NSC70+N30 pre-incubated for 30 minutes with agent
Procedure: Bars represent the percentage of migrated neurons after 20 hours in culture towards medium or a chemoattractant either with or without VEGF R2-AB or endostatin treatment. Cell numbers were normalised to the number of plated neurons (*P≦0.02; statistical significance was determined in relation to the control).
as §1, with “If the agent acts as a chemoattractant, the attached cells will migrate through the filter towards the gradient of the attracting factor. Small pore sizes (8 μm) require active migration rather than passive falling of the cells through the filter.” left out
In this study agarose beads were soaked with either 30 ng/ml EGF, BDNF, SDF1, SCF, PDFG-AA, FGF2 or VEGF (FIG. 1B). […] Cells that had not migrated and were still on the upper side of the membrane were scraped off, while the migrated cells on the lower side were DAPI stained and counted. […]

[5] = tested on: lt-hESNSC mixed with immature neurons on hippocampal rat slice cultures; experiment: Transplantation onto rat hippocampal slice cultures (migration of human neurons from mixed grafts); assay type: cell-based
Procedure: Using a vibroslicer, 400 μm horizontal sections were generated from the hippocampus of 9-10 day-old Wistar rats. The slices included the dentate gyrus and the entorhinal and temporal cortex (Scheffler et al., 2003; Opitz et al., 2007). They were transferred onto a polyester membrane and cultivated at 35° C., 5% CO2 and saturated air humidity in an initial culture medium containing 25% normal horse serum, which was gradually replaced after 3-5 days by chemically defined, serum-free culture medium based on DMEM/F12, N2 supplement and B27 supplement. Medium was changed every other day and 5-7 days after explantation a cell suspension of 50 000 cells in a 1 μl volume was spotted onto the entorhinal cortex of the slice using an injection device.
For immunohistochemical analysis of slice cultures (FIG. 4), cultures were fixed in 4% paraformaldehyde for 4 hours and subsequently washed several times with PBS. Slices were permeabilized/blocked with 0.1% Triton X-100+10% FCS for 6 hours at 25° C. Incubation with primary antibody was for 16 hours at room temperature, followed by washing steps with PBS for 5 hours. Incubation with the secondary antibodies was for 2 hours at room temperature.
To further investigate whether endostatin can also interfere with the chemoattractive effect of neural stem/progenitor cells on immature neurons in a context closer to an in vivo situation, hippocampal rat slice culture experiments were performed. HES-NSC70+N30 were pre-incubated for 30 minutes in 30 μl Cytocon™-Buffer II with either 2 μl stock solution endostatin (n=9) or with 2 μl of the solvent of endostatin (citric-phosphate buffer) as control (n=9), and then deposited on the entorhinal cortex of hippocampal slice cultures. Cultures of pure human neurons were transplanted as positive control (n=9). The slices were further cultured for 18 days after deposition of the cells. 1 μl/ml endostatin stock solution was continuously applied every day to the slice media.
To further investigate whether BIBF1120 can also interfere with the chemoattractive effect of neural stem/progenitor cells on immature neurons, hippocampal rat slice culture experiments were performed. Lt-hESNSC mixed with purified DCX-EGFP positive neurons (30.0000 lt-hESNSC mixed with 100.000 purified neurons per μl) were pre-incubated for 30 min. in Cytocon™-Buffer II with or without 2 μg/ml BIBF1120, respectively, and then deposited on the entorhinal cortex (EC) of hippocampal slice cultures. The slices were further cultured for 7 days after deposition of the cells. 2 μg/ml BIBF1120 was continuously applied every day to the slice media.

Chain of KDR (P35968 20-1356): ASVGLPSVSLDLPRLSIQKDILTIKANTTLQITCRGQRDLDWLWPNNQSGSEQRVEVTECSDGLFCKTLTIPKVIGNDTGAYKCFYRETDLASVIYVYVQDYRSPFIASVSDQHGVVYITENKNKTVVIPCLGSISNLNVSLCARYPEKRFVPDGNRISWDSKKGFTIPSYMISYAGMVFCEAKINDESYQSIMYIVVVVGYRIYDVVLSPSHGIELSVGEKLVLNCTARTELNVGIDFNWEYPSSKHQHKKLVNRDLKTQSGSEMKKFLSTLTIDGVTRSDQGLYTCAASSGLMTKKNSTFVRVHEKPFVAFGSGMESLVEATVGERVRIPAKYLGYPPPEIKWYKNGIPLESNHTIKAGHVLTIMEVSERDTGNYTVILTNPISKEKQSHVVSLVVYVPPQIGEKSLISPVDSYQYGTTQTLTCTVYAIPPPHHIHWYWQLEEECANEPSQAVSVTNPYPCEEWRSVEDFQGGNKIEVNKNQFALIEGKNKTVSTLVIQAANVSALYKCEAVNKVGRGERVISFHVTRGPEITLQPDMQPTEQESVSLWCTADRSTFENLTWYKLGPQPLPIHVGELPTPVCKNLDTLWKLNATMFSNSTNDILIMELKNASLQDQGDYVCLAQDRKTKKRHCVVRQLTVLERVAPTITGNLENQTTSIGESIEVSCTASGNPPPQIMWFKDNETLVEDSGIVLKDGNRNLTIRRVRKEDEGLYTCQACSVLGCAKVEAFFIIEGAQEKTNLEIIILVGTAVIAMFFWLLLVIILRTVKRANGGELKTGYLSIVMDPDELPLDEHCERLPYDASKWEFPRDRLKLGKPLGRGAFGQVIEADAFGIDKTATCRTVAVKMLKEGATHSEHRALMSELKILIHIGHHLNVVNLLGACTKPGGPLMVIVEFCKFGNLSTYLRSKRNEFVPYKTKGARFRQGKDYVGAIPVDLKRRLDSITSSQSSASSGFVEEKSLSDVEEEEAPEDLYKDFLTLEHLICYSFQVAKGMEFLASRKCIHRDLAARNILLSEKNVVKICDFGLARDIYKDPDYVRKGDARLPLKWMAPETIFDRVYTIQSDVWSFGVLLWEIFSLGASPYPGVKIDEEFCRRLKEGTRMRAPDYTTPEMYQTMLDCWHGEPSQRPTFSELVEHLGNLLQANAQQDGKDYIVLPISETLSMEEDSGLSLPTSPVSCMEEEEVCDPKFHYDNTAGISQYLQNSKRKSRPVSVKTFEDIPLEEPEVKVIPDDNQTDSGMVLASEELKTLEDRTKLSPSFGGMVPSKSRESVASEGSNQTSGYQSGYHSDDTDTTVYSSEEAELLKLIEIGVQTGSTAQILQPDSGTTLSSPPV

ATWLPPR
VEGF-induced angiogenesis [1]: abolished
VEGF binding to cell-displayed KDR (KDR): abolish

FGF2: fibroblast growth factor 2, an 18 kDa protein
chemoattractive effect on neurons in the chamber migration assay (human Neurons [2]): neuronal chemoattractants; also recorded: significant chemoattractive effect
chemotaxis of human neurons towards gradient of the factor (human Neurons [3]): neuronal chemoattractants; also recorded: clear directionality of migration

PDGF: platelet-derived growth factor, tested as neuronal chemoattractant
chemoattractive effect on neurons in the chamber migration assay (human Neurons [2]): neuronal chemoattractants; also recorded: significant chemoattractive effect

SDF1: soluble factor tested as neuronal chemoattractant
chemoattractive effect on neurons in the chamber migration assay (human Neurons [2]): neuronal chemoattractants

VEGF
chemoattractive effect on neurons in the chamber migration assay (human Neurons [2]): neuronal chemoattractants; also recorded: significant chemoattractive effect
chemotaxis of human neurons towards gradient of the factor (human Neurons [3]): neuronal chemoattractants; also recorded: clear directionality of migration

endostatin
toxicity during continued treatment (primary tumor; in vivo): no toxicity
tumor regression in size (primary tumor; recombinant E. coli-derived endostatin added at a site remote from the primary tumor): over 150 fold
tumor size after regression (primary tumor; recombinant E. coli-derived endostatin): less than 1 mm^3
migration of immature neurons towards PDGF gradient ([4]; agarose beads releasing PDGF): additionally enhanced the effect
migration of immature neurons towards media ([4]; plain agarose beads, 20 hours, vs solvent control): significantly enhanced migration; also recorded: most prominent enhancement of migration
migration of single human neurons away from the transplantation core (horizontal) ([5]; hES-NSC70+N30, endostatin pre-incubation and daily application, day 18): up to 800 μm
migration horizontally over the slice compared to control population ([5]; hES-NSC70+N30, endostatin treated, 18 days after transplantation): enhanced migration and integration capacity
depth reached along the z-axis ([5]; hES-NSC70+N30, endostatin treated, day 18): 350 μm
